According to US9113629B2, “4-amino-6-(4-substituted-phenyl)-picolinates and 6-amino-2-(4-substituted-phenyl)-pyrimidine-4-carboxylates and their use as herbicides” (DOW AGROSCIENCES LLC, priority 2013, dated 2015):
Like-named read-outs stand apart in the source and are kept apart here.

Legend:
[1] = system: Key Broadleaf Weed and Crop Species; assay: Post-emergent Test II herbicidal activity (Table 5); type: in vivo; conditions: post-emergence, 336 h, 14 days after application; for pest or weed control at 70 g/ha: application rate 70 g ai/ha; for pest or weed control at 140 g/ha: application rate 140 g ai/ha
Procedure, shortened: (§1)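 Greenhouse post-emergent assay: seedlings (first/second true leaf) in Metro-Mix 360 were sprayed at 187 L/ha at a top rate plus twofold dilutions down to 1/16×; solvent-blank controls were included. Percent visual injury was read at 14 d.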

[2] = system: Key Grass and Sedge Weeds as well as Grass Crops; assay: Post-emergent Test II herbicidal activity (Table 6); type: in vivo; conditions: post-emergence, 336 h; for pest or weed control at 70 g/ha: 70 g ai/ha; for pest or weed control at 140 g/ha: 140 g ai/ha
Procedure, shortened: as §1

[3] = ABUTH: velvetleaf (Abutilon theophrasti), read-out: Visual Growth Reduction (%) 14 Days After Application, ABUTH
[4] = AMARE: redroot pigweed (Amaranthus retroflexus), read-out: Visual Growth Reduction (%) 14 Days After Application, AMARE
[5] = BRSNN: oilseed-rape, canola (Brassica napus), read-out: Visual Growth Reduction (%) 14 Days After Application, BRSNN
[6] = CHEAL: lambsquarters (Chenopodium album), read-out: Visual Growth Reduction (%) 14 Days After Application, CHEAL
[7] = EPHHL: wild poinsettia (Euphorbia heterophylla), read-out: Visual Growth Reduction (%) 14 Days After Application, EPHHL
[8] = HELAN: sunflower (Helianthus annuus), read-out: Visual Growth Reduction (%) 14 Days After Application, HELAN
[9] = VIOTR: wild pansy (Viola tricolor), read-out: Visual Growth Reduction (%) 14 Days After Application, VIOTR
[10] = CYPES: yellow nutsedge (Cyperus esculentus), read-out: Visual Growth Reduction (%) 14 Days After Application, CYPES
[11] = DIGSA: crabgrass (Digitaria sanguinalis), read-out: Visual Growth Reduction (%) 14 Days After Application, DIGSA
[12] = ECHCG: barnyardgrass (Echinochloa crus-galli), read-out: Visual Growth Reduction (%) 14 Days After Application, ECHCG
[13] = ORYSA: rice (Oryza sativa), crop, read-out: Visual Growth Reduction (%) 14 Days After Application, ORYSA
[14] = SETFA: giant foxtail (Setaria faberi), read-out: Visual Growth Reduction (%) 14 Days After Application, SETFA
[15] = SORVU: grain sorghum (Sorghum vulgare), read-out: Visual Growth Reduction (%) 14 Days After Application, SORVU
[16] = TRZSS (wheat, Triticum aestivum), crop, read-out: Visual Growth Reduction (%) 14 Days After Application, TRZSS
[17] = ZEAMX: maize, corn (Zea mays), crop, read-out: Visual Growth Reduction (%) 14 Days After Application, ZEAMX

Question: Which pest or weed control at 70 g/ha [1, 3] does the source give for `COC(=O)c1nc(-c2ccc(C#N)c(F)c2)c(F)c(N)c1Cl` [Compound 135, methyl 4-amino-3-chloro-6-(4-cyano-3-fluorophenyl)-5-fluoropicolinate] here?
Answer: Its pest or weed control at 70 g/ha is 95 to 100%.

Question: And the pest or weed control at 140 g/ha [1, 3]?
Answer: The pest or weed control at 140 g/ha was 95 to 100%.

Question: What about the pest or weed control at 70 g/ha [1, 4] of the same molecule?
Answer: Its pest or weed control at 70 g/ha is 95 to 100%.

Question: What about the pest or weed control at 140 g/ha [1, 4] of the same molecule?
Answer: Its pest or weed control at 140 g/ha is 95 to 100%.

Question: And the pest or weed control at 70 g/ha [1, 5]?
Answer: The pest or weed control at 70 g/ha was 60 to 74%.

Question: And the pest or weed control at 140 g/ha [1, 5]?
Answer: The pest or weed control at 140 g/ha was 60 to 74%.

Question: What about the pest or weed control at 70 g/ha [1, 6] of the same molecule?
Answer: The pest or weed control at 70 g/ha was 95 to 100%.

Question: What about the pest or weed control at 140 g/ha [1, 6] of the same molecule?
Answer: The pest or weed control at 140 g/ha was 95 to 100%.

Question: And the pest or weed control at 70 g/ha [1, 7]?
Answer: Its pest or weed control at 70 g/ha is 95 to 100%.

Question: And the pest or weed control at 140 g/ha [1, 7]?
Answer: The pest or weed control at 140 g/ha was 95 to 100%.

Question: What about the pest or weed control at 70 g/ha [1, 8] of the same molecule?
Answer: Its pest or weed control at 70 g/ha is 95 to 100%.

Question: And the pest or weed control at 140 g/ha [1, 8]?
Answer: Its pest or weed control at 140 g/ha is 95 to 100%.

Question: And the pest or weed control at 70 g/ha [1, 9]?
Answer: Its pest or weed control at 70 g/ha is 60 to 74%.

Question: What about the pest or weed control at 140 g/ha [1, 9] of the same molecule?
Answer: Its pest or weed control at 140 g/ha is 60 to 74%.

Question: What about the pest or weed control at 70 g/ha [2, 10] of the same molecule?
Answer: The pest or weed control at 70 g/ha was 85 to 94%.

Question: What about the pest or weed control at 140 g/ha [2, 10] of the same molecule?
Answer: Its pest or weed control at 140 g/ha is 95 to 100%.

Question: What about the pest or weed control at 70 g/ha [2, 11] of the same molecule?
Answer: Its pest or weed control at 70 g/ha is 60 to 74%.

Question: What about the pest or weed control at 140 g/ha [2, 11] of the same molecule?
Answer: Its pest or weed control at 140 g/ha is 75 to 84%.

Question: And the pest or weed control at 70 g/ha [2, 12]?
Answer: The pest or weed control at 70 g/ha was 95 to 100%.

Question: And the pest or weed control at 140 g/ha [2, 12]?
Answer: The pest or weed control at 140 g/ha was 95 to 100%.

Question: And the pest or weed control at 70 g/ha [2, 13]?
Answer: The pest or weed control at 70 g/ha was 0 to 29%.

Question: And the pest or weed control at 140 g/ha [2, 13]?
Answer: Its pest or weed control at 140 g/ha is 0 to 29%.

Question: And the pest or weed control at 70 g/ha [2, 14]?
Answer: The pest or weed control at 70 g/ha was 60 to 74%.

Question: And the pest or weed control at 140 g/ha [2, 14]?
Answer: The pest or weed control at 140 g/ha was 75 to 84%.

Question: What about the pest or weed control at 70 g/ha [2, 15] of the same molecule?
Answer: The pest or weed control at 70 g/ha was 75 to 84%.

Question: What about the pest or weed control at 140 g/ha [2, 15] of the same molecule?
Answer: Its pest or weed control at 140 g/ha is 85 to 94%.

Question: What about the pest or weed control at 70 g/ha [2, 16] of the same molecule?
Answer: Its pest or weed control at 70 g/ha is 30 to 44%.

Question: What about the pest or weed control at 140 g/ha [2, 16] of the same molecule?
Answer: Its pest or weed control at 140 g/ha is 30 to 44%.

Question: And the pest or weed control at 70 g/ha [2, 17]?
Answer: The pest or weed control at 70 g/ha was 75 to 84%.

Question: And the pest or weed control at 140 g/ha [2, 17]?
Answer: The pest or weed control at 140 g/ha was 75 to 84%.
